From US11986540B2, “Compositions including pafolacianine for the identification of malignant lesions” (ON TARGET LABORATORIES, LLC., priority 2022, dated 2024)
Like-named read-outs stand apart in the source and are kept apart here.

Columns and labels:
[1] = Single IV dose toxicokinetics in rats; assay type: in vivo; settings: Study Day 0; for AUC(0-t) / C0: rat, in vivo
Description: Following a single IV administration of pafolacianine to male and female rats, systemic exposure (AUClast) to pafolacianine appeared similar between males and females at the 46.3 mg/kg dose levels (Table 2). There was a slight trend for higher AUClast values in females versus males at the two lower dose levels; however, due to sparse sampling of blood, the significance of this slight trend could not be evaluated. Values for AUClast were calculated, but the time associated with the last measurable concentration was variable (Tlast; 5 min to 24 hr), which confounded the ability to assess dose proportionality. Terminal data were generally sparse and/or the terminal phase was not sufficiently defined (FIG. 4). Thus, parameters dependent on accurate determination of the terminal phase (AUCinf, T1/2, CL, Vz) were not reported.

[2] = Repeat once-weekly IV dose toxicokinetics in rats; assay type: in vivo; settings: for increase in AUCinf: after 14.9-fold increase in dose; for half-life / AUC(0-inf) / C0 / clearance / Vd: rat, in vivo; for Vd: read-out: Vss
Description: […] On both Day 1 and Day 13, increases in pafolacianine exposure (AUCinf) were trending slightly greater than dose proportional, noting that sparse blood sampling was employed so the variability in the AUCs could not be assessed. […] CL was slow (relative to hepatic blood flow) and Vss was moderate. Mean T1/2 ranged from approximately 6 to 11 hours.

plasma protein = assay: Plasma protein binding, equilibrium dialysis, human plasma; assay type: in vitro ADME; settings: human plasma, 5 μM
Description: (§1) The plasma protein binding of pafolacianine was studied in vitro in fresh human, Sprague Dawley rat, and Beagle dog plasma using equilibrium dialysis. Pafolacianine was introduced into plasma samples, in duplicate, resulting in a final concentration of 5 μM. The mean (±SD) percentage of plasma protein bound pafolacianine was 99.1±0.1%, 98.6±0.1%, and 93.7±1.5% for rat, dog and human, respectively. Pafolacianine was highly bound to plasma protein in all species examined.

[3] = as above; assay type: in vitro ADME; settings: human, plasma
Description: as §1

[4] = Safety in three open label clinical studies; assay type: in vivo, human
Description: The safety of the disclosed compositions were evaluated in three open label clinical studies, two studies (N=150 and N=44) in patients with ovarian cancer and one study (N=100) in patients with cancer in the lung. A total of 294 patients received 0.025 mg/kg of the disclosed compositions via intravenous administration. The mean age of patients was 63.5 years; 51% were 65 years of age or older; 89% of patients were female; and 84% of patients were white.

[5] = female rats, 3.1 mg/kg single IV
[6] = female rats, 30.8 mg/kg single IV
[7] = female rats, 46.3 mg/kg single IV
[8] = male rats, 30.8 mg/kg single IV
[9] = male rats, 46.3 mg/kg single IV
[10] = female, iv, 3.1 mg/kg, rats F, 3.1 mg/kg once-weekly IV, Day 0
[11] = female, iv, 3.1 mg/kg, rats F, 3.1 mg/kg once-weekly IV, Day 13
[12] = female, iv, 30.8 mg/kg, rats F, 30.8 mg/kg once-weekly IV, Day 0
[13] = female, iv, 30.8 mg/kg, rats F, 30.8 mg/kg once-weekly IV, Day 13
[14] = female, iv, 46.3 mg/kg, rats F, 46.3 mg/kg once-weekly IV, Day 0
[15] = female, iv, 46.3 mg/kg, rats F, 46.3 mg/kg once-weekly IV, Day 13
[16] = male, iv, 3.1 mg/kg, rats M, 3.1 mg/kg once-weekly IV, Day 0
[17] = male, iv, 3.1 mg/kg, rats M, 3.1 mg/kg once-weekly IV, Day 13
[18] = male, iv, 30.8 mg/kg, rats M, 30.8 mg/kg once-weekly IV, Day 0
[19] = male, iv, 30.8 mg/kg, rats M, 30.8 mg/kg once-weekly IV, Day 13
[20] = male, iv, 46.3 mg/kg, rats M, 46.3 mg/kg once-weekly IV, Day 0
[21] = male, iv, 46.3 mg/kg, rats M, 46.3 mg/kg once-weekly IV, Day 13
[22] = rats F, 3.1 mg/kg once-weekly IV, Day 13
[23] = rats F, 30.8 mg/kg once-weekly IV, Day 13
[24] = rats F, 46.3 mg/kg once-weekly IV, Day 13
[25] = rats M, 3.1 mg/kg once-weekly IV, Day 13
[26] = rats M, 30.8 mg/kg once-weekly IV, Day 13
[27] = rats M, 46.3 mg/kg once-weekly IV, Day 13

With CC1(C)C(=CC=C2CCCC(C=CC3=[N+](CCCCS(=O)(=O)[O-])c4ccc(S(=O)(=O)O)cc4C3(C)C)=C2Oc2ccc(CC(NC(=O)c3ccc(NCc4cnc5nc(N)[nH]c(=O)c5n4)cc3)C(=O)O)cc2)N(CCCCS(=O)(=O)O)c2ccc(S(=O)(=O)O)cc21 (stereo not shown) [pafolacianine] the “DN AUClast” value [1, 5] was 0.816 (μg · h/mL)/(mg/kg), the “DN AUClast” value [1, 6] was 5.39 (μg · h/mL)/(mg/kg) and the “DN AUClast” value [1, 7] was 5.51 (μg · h/mL)/(mg/kg). The “DN AUClast” value ([1]; male rats, 3.1 mg/kg single IV) was 0.184 (μg · h/mL)/(mg/kg), the “DN AUClast” value [1, 8] was 3.86 (μg · h/mL)/(mg/kg) and the “DN AUClast” value [1, 9] was 6.18 (μg · h/mL)/(mg/kg). For the same molecule, the AUC(0-t) [1, 5] was 2.53 µg·h/mL, the C0 [1, 5] was 16.2 µg/mL and the AUC(0-t) [1, 6] was 166 µg·h/mL. The C0 [1, 6] was 178 µg/mL, the AUC(0-t) [1, 7] was 255 µg·h/mL and the C0 [1, 7] was 231 µg/mL. It also gave an AUC(0-t) ([1]; male rats, 3.1 mg/kg single IV) of 0.57 µg·h/mL, a C0 ([1]; male rats, 3.1 mg/kg single IV) of 6.87 µg/mL and an AUC(0-t) [1, 8] of 119 µg·h/mL. For the same molecule, the C0 [1, 8] was 65.7 µg/mL, the AUC(0-t) [1, 9] was 286 µg·h/mL and the C0 [1, 9] was 174 µg/mL. For the same molecule, the “increase in AUCinf” value ([2]; Day 1, genders combined) was ~18 fold, the “increase in AUCinf” value ([2]; Day 13, genders combined) was ~20 fold and the half-life ([2]; both sexes, intravenous, rats, all doses and days, read-out: Mean T1/2 range) was 6 to 11 h. It also gave an AUC(0-inf) [2, 10] of 19.1 µg·h/mL, a C0 [2, 10] of 21.2 µg/mL and a clearance [2, 10] of 2.72 mL/min/kg. The half-life ([2]; female, iv, 3.1 mg/kg, rats F, 3.1 mg/kg once-weekly IV, Day 0, read-out: T1/2 (converted)) was 7.18 h, the Vd [2, 10] was 1.08 L/kg and the AUC(0-inf) [2, 11] was 16.6 µg·h/mL. It also gave a C0 [2, 11] of 4.76 µg/mL, a clearance [2, 11] of 3.1 mL/min/kg and a half-life ([2]; female, iv, 3.1 mg/kg, rats F, 3.1 mg/kg once-weekly IV, Day 13, read-out: T1/2 (converted)) of 8.43 h. The Vd [2, 11] was 1.7 L/kg, the AUC(0-inf) [2, 12] was 237 µg·h/mL and the C0 [2, 12] was 194 µg/mL. For the same molecule, the clearance [2, 12] was 2.17 mL/min/kg, the half-life ([2]; female, iv, 30.8 mg/kg, rats F, 30.8 mg/kg once-weekly IV, Day 0, read-out: T1/2 (converted)) was 8.69 h and the Vd [2, 12] was 1.14 L/kg. The AUC(0-inf) [2, 13] was 291 µg·h/mL, the C0 [2, 13] was 105 µg/mL and the clearance [2, 13] was 1.77 mL/min/kg. For the same molecule, the half-life ([2]; female, iv, 30.8 mg/kg, rats F, 30.8 mg/kg once-weekly IV, Day 13, read-out: T1/2 (converted)) was 6.06 h, the Vd [2, 13] was 0.773 L/kg and the AUC(0-inf) [2, 14] was 361 µg·h/mL. For the same molecule, the C0 [2, 14] was 245 µg/mL, the clearance [2, 14] was 2.13 mL/min/kg and the half-life ([2]; female, iv, 46.3 mg/kg, rats F, 46.3 mg/kg once-weekly IV, Day 0, read-out: T1/2 (converted)) was 9.76 h. For the same molecule, the Vd [2, 14] was 1.29 L/kg, the AUC(0-inf) [2, 15] was 387 µg·h/mL and the C0 [2, 15] was 240 µg/mL. For the same molecule, the clearance [2, 15] was 2 mL/min/kg, the half-life ([2]; female, iv, 46.3 mg/kg, rats F, 46.3 mg/kg once-weekly IV, Day 13, read-out: T1/2 (converted)) was 5.76 h and the Vd [2, 15] was 0.806 L/kg. The AUC(0-inf) [2, 16] was 19.2 µg·h/mL, the C0 [2, 16] was 27.7 µg/mL and the clearance [2, 16] was 2.68 mL/min/kg. It also gave a half-life ([2]; male, iv, 3.1 mg/kg, rats M, 3.1 mg/kg once-weekly IV, Day 0, read-out: T1/2 (converted)) of 8.25 h, a Vd [2, 16] of 1.24 L/kg and an AUC(0-inf) [2, 17] of 21 µg·h/mL. It also gave a C0 [2, 17] of 24 µg/mL, a clearance [2, 17] of 2.47 mL/min/kg and a half-life ([2]; male, iv, 3.1 mg/kg, rats M, 3.1 mg/kg once-weekly IV, Day 13, read-out: T1/2 (converted)) of 9.67 h. For the same molecule, the Vd [2, 17] was 1.5 L/kg, the AUC(0-inf) [2, 18] was 235 µg·h/mL and the C0 [2, 18] was 165 µg/mL. The clearance [2, 18] was 2.18 mL/min/kg, the half-life ([2]; male, iv, 30.8 mg/kg, rats M, 30.8 mg/kg once-weekly IV, Day 0, read-out: T1/2 (converted)) was 10.9 h and the Vd [2, 18] was 1.53 L/kg. The AUC(0-inf) [2, 19] was 329 µg·h/mL, the C0 [2, 19] was 202 µg/mL and the clearance [2, 19] was 1.56 mL/min/kg. The half-life ([2]; male, iv, 30.8 mg/kg, rats M, 30.8 mg/kg once-weekly IV, Day 13, read-out: T1/2 (converted)) was 10.4 h, the Vd [2, 19] was 1.15 L/kg and the AUC(0-inf) [2, 20] was 342 µg·h/mL. For the same molecule, the C0 [2, 20] was 263 µg/mL, the clearance [2, 20] was 2.27 mL/min/kg and the half-life ([2]; male, iv, 46.3 mg/kg, rats M, 46.3 mg/kg once-weekly IV, Day 0, read-out: T1/2 (converted)) was 7.99 h. For the same molecule, the Vd [2, 20] was 1.41 L/kg, the AUC(0-inf) [2, 21] was 380 µg·h/mL and the C0 [2, 21] was 269 µg/mL. The clearance [2, 21] was 2.03 mL/min/kg, the half-life ([2]; male, iv, 46.3 mg/kg, rats M, 46.3 mg/kg once-weekly IV, Day 13, read-out: T1/2 (converted)) was 7.35 h and the Vd [2, 21] was 1.12 L/kg. The “DN AUCinf” value ([2]; rats F, 3.1 mg/kg once-weekly IV, Day 0) was 6.15 (μg · h/mL)/(mg/kg), the “Accumulation Ratio” value [2, 22] was 0.874 and the “DN AUCinf” value [2, 22] was 5.37 (μg · h/mL)/(mg/kg). For the same molecule, the “DN AUCinf” value ([2]; rats F, 30.8 mg/kg once-weekly IV, Day 0) was 7.70 (μg · h/mL)/(mg/kg), the “Accumulation Ratio” value [2, 23] was 1.23 and the “DN AUCinf” value [2, 23] was 9.45 (μg · h/mL)/(mg/kg). The “DN AUCinf” value ([2]; rats F, 46.3 mg/kg once-weekly IV, Day 0) was 7.80 (μg · h/mL)/(mg/kg), the “Accumulation Ratio” value [2, 24] was 1.07 and the “DN AUCinf” value [2, 24] was 8.35 (μg · h/mL)/(mg/kg). For the same molecule, the “DN AUCinf” value ([2]; rats M, 3.1 mg/kg once-weekly IV, Day 0) was 6.19 (μg · h/mL)/(mg/kg), the “Accumulation Ratio” value [2, 25] was 1.09 and the “DN AUCinf” value [2, 25] was 6.76 (μg · h/mL)/(mg/kg). The “DN AUCinf” value ([2]; rats M, 30.8 mg/kg once-weekly IV, Day 0) was 7.63 (μg · h/mL)/(mg/kg), the “Accumulation Ratio” value [2, 26] was 1.40 and the “DN AUCinf” value [2, 26] was 10.7 (μg · h/mL)/(mg/kg). For the same molecule, the “DN AUCinf” value ([2]; rats M, 46.3 mg/kg once-weekly IV, Day 0) was 7.39 (μg · h/mL)/(mg/kg), the “Accumulation Ratio” value [2, 27] was 1.11 and the “DN AUCinf” value [2, 27] was 8.20 (μg · h/mL)/(mg/kg). For the same molecule, the “accumulation or changes in TK parameters after repeated dosing” value ([2]; rats, once-weekly dosing for 3 weeks) was “no accumulation or changes in TK parameters were evident”, the “mean (±SD) percentage of plasma protein bound” value (plasma protein) was 93.7±1.5% and the fraction unbound at 5 μM [3] was 0.063. For the same molecule, the “Adverse reaction: abdominal pain” value ([4]; 294 patients, 0.025 mg/kg IV) was 2.7%, the “Adverse reaction: chest discomfort” value ([4]; 294 patients, 0.025 mg/kg IV) was 1% and the “Adverse reaction: dyspepsia” value ([4]; 294 patients, 0.025 mg/kg IV) was 1%. For the same molecule, the “Adverse reaction: flushing” value ([4]; 294 patients, 0.025 mg/kg IV) was 1.7%, the “Adverse reaction: hypersensitivity” value ([4]; 294 patients, 0.025 mg/kg IV) was 1% and the “Adverse reaction: nausea” value ([4]; 294 patients, 0.025 mg/kg IV) was 15%. For the same molecule, the “Adverse reaction: pruritus” value ([4]; 294 patients, 0.025 mg/kg IV) was 1%, the “Adverse reaction: vomiting” value ([4]; 294 patients, 0.025 mg/kg IV) was 5.8% and the “patients with adverse reactions during the administration” value ([4]; 294 patients, 0.025 mg/kg IV) was 2.4%. For the same molecule, the “time of occurrence of reactions after start of infusion” value ([4]; typically) was ≤ 15 min.
